Source: PMC7027746 (Clinical Pharmacology in Drug Development, 2019)
Where two headings read alike, the source gives them in different places.

Tests used:
[1] = healthy volunteers, cited from earlier work
CYP2C9 = settings: human liver microsomes, clinically relevant concentrations; ref data on file; cited from earlier work
[2] = system: crizotinib‐naive patients with ALK‐positive NSCLC; settings: cited from earlier work
CYP2B6 = settings: human liver microsomes, clinically relevant concentrations; ref data on file; cited from earlier work
healthy subjects = experiment: Safety and tolerability; type: in vivo, human
CYP1A2 = settings: human liver microsomes, clinically relevant concentrations; ref data on file; cited from earlier work
[3] = Rifampin DDI arm: single-dose brigatinib plasma PK with and without rifampin; type: in vivo, human; settings: for half-life / Cmax / AUC: human, plasma
CYP2C19 = settings: human liver microsomes, clinically relevant concentrations; ref data on file; cited from earlier work
[4] = type: in vivo, human; settings: for CL/F, geometric mean (% CV) / CL/F, mean (SD) / AUC / Cmax: healthy subjects
[5] = single 180‐mg oral dose of [14C]‐brigatinib, healthy volunteers; cited from earlier work
[6] = type: in vivo, human; settings: for CL/F, geometric mean (% CV) / CL/F, mean (SD) / AUC / Cmax: healthy subjects; remark: listed apart in the source
CYP3A expression = settings: human hepatocytes, clinically relevant concentrations, via activation of the pregnane X receptor; cited from earlier work
CYP2D6 = settings: human liver microsomes, clinically relevant concentrations; ref data on file; cited from earlier work
[7] = cited from earlier work
CYP3A4/5 = settings: human liver microsomes, clinically relevant concentrations; ref data on file; cited from earlier work
CYP2C8 = settings: human liver microsomes, clinically relevant concentrations; ref data on file; cited from earlier work
ALK = settings: in vitro; cited from earlier work
[8] = brigatinib coadministered with gemfibrozil
[9] = brigatinib 180 mg + rifampin vs brigatinib alone
[10] = brigatinib + rifampin compared with brigatinib alone
[11] = healthy subjects, single 180 mg oral brigatinib + rifampin 600 mg QD (test), n = 19
[12] = healthy subjects, single 180 mg oral brigatinib alone (reference), n = 20
[13] = brigatinib 90 mg + itraconazole vs brigatinib alone
[14] = brigatinib + itraconazole compared with brigatinib alone
[15] = single 90 mg oral brigatinib + itraconazole 200 mg BID (test), n = 11
[16] = single 90 mg oral brigatinib alone (reference), n = 20
[17] = human, plasma, po, 90 mg, AUC0‐120, geometric mean (% CV), single 90 mg oral brigatinib alone (reference), n = 20
[18] = human, plasma, po, 90 mg, AUC0‐120, mean (SD), single 90 mg oral brigatinib alone (reference), n = 20
[19] = human, plasma, po, 90 mg, geometric mean (% CV), single 90 mg oral brigatinib alone (reference), n = 20
[20] = brigatinib 90 mg + gemfibrozil vs brigatinib alone
[21] = brigatinib + gemfibrozil compared with brigatinib alone
[22] = single 90 mg oral brigatinib + gemfibrozil 600 mg BID (test), n = 19
[23] = single 90 mg oral brigatinib alone (reference), n = 19

## COc1cc(N2CCC(N3CCN(C)CC3)CC2)ccc1Nc1ncc(Cl)c(Nc2ccccc2P(C)(C)=O)n1 [brigatinib, Brigatinib]
[1]; compared with fasted‐state administration
  decrease of peak concentration (Cmax) by a high‐fat meal: 13%
[1]; fasted state
  median time to Cmax (tmax): 2 h
[1]; high‐fat meal
  median time to Cmax (tmax): 5 h
[1]
  effect of a high‐fat meal on total systemic exposure: no impact
CYP2C9
  inhibition of CYP2C9 activity: did not inhibit
[2]; brigatinib versus crizotinib, P < .001
  hazard ratio, progression‐free survival: 0.49 [95%CI, 0.33‐0.74]
[2]; phase 3 trial, crizotinib‐naive patients with ALK‐positive NSCLC
  12‐month progression‐free survival: 67%
CYP2B6
  inhibition of CYP2B6 activity: did not inhibit
Healthy subjects; Gemfibrozil DDI arm (n = 20)
  Any serious TEAE: 0 n (%)
  Any severe TEAE: 0 n (%)
  On‐study deaths: 0 n (%)
Healthy subjects; Gemfibrozil DDI arm (n = 20), brigatinib 90 mg alone and with gemfibrozil
  Any TEAE: 9 (45) n (%)
Healthy subjects; Gemfibrozil DDI arm (n = 20), emesis, treatment period 2
  AE leading to discontinuation: 1 n (%)
Healthy subjects; Itraconazole DDI arm (n = 20)
  AE leading to discontinuation: 0 n (%)
  Any serious TEAE: 0 n (%)
  Any severe TEAE: 0 n (%)
  On‐study deaths: 0 n (%)
Healthy subjects; Rifampin DDI arm (n = 20)
  Any serious TEAE: 0 n (%)
  Any severe TEAE: 0 n (%)
  On‐study deaths: 0 n (%)
Healthy subjects; Rifampin DDI arm (n = 20), elevated aspartate aminotransferase and alanine aminotransferase, treatment period 2
  AE leading to discontinuation: 1 n (%)
Healthy subjects; [8]
  TEAE incidence: cough: 20%
  TEAE incidence: throat irritation: 10%
Healthy subjects; brigatinib coadministered with rifampin
  TEAE incidence: cough: 10%
CYP1A2
  inhibition of CYP1A2 activity: did not inhibit
[3]; [9]
  AUC0‐120, geometric LS mean ratio (90%CI) (test vs reference): 0.20 (0.19‐0.22)
  CL/F, geometric LS mean ratio (90%CI) (test vs reference): 5.11 (4.73‐5.51)
[3]; [10]
  decrease of geometric mean Cmax: 60%
  reduction of geometric mean AUC0‐inf: 80%
[3]; [11]
  CL/F, geometric mean (% CV): 59.2 (25.8) L/h
  CL/F, mean (SD): 61.0 (15.4) L/h
  tmax, median (range): 2.0 (1.0‐4.0) h
[3]; [12]
  CL/F, geometric mean (% CV): 11.5 (34.4) L/h
  CL/F, mean (SD): 12.2 (4.3) L/h
[3]; oral, 180 mg, geometric mean t½, brigatinib 180 mg in the presence of rifampin
  half-life: 23.4 h
[3]; po, 180 mg, geometric mean (% CV), healthy subjects, single 180 mg oral brigatinib alone (reference), n = 20
  Cmax: 826 ng/mL
[3]; po, AUC0‐120, geometric mean (% CV), healthy subjects, single 180 mg oral brigatinib + rifampin 600 mg QD (test), n = 19
  AUC: 3020 ng·h/mL
[3]; po, AUC0‐120, mean (SD), healthy subjects, single 180 mg oral brigatinib + rifampin 600 mg QD (test), n = 19
  AUC: 3110 ng·h/mL
[3]; po, AUC0‐inf, geometric mean (% CV), healthy subjects, single 180 mg oral brigatinib + rifampin 600 mg QD (test), n = 19
  AUC: 3040 ng·h/mL
[3]; po, AUC0‐inf, mean (SD), healthy subjects, single 180 mg oral brigatinib + rifampin 600 mg QD (test), n = 19
  AUC: 3140 ng·h/mL
[3]; po, geometric mean (% CV), healthy subjects, single 180 mg oral brigatinib + rifampin 600 mg QD (test), n = 19
  Cmax: 334 ng/mL
[3]; po, mean (SD), healthy subjects, single 180 mg oral brigatinib + rifampin 600 mg QD (test), n = 19
  Cmax: 347 ng/mL
[3]; po, t½, mean (SD), healthy subjects, single 180 mg oral brigatinib + rifampin 600 mg QD (test), n = 19
  half-life: 23.7 h
[3]; in the presence of rifampin
  increase in CL/F: approximately 5 fold
CYP2C19
  inhibition of CYP2C19 activity: did not inhibit
[4]; [13]
  CL/F, geometric LS mean ratio (90%CI) (test vs reference): 0.50 (0.45‐0.54)
  Cmax, geometric LS mean ratio (90%CI) (test vs reference): 1.21 (1.13‐1.30)
[4]; [14]
  increase of geometric mean AUC0‐120: 82%
  increase of geometric mean AUC0‐inf: 101%
  increase of geometric mean Cmax: 21%
  prolongation in the geometric mean t½: ~50%
[4]; by itraconazole
  increase of systemic exposure: 2 fold
[4]; [15]
  CL/F, geometric mean (% CV): 6.67 (35.6) L/h
  CL/F, mean (SD): 7.05 (2.54) L/h
[4]; [16]
  CL/F, geometric mean (% CV): 14.0 (28.7) L/h
  CL/F, mean (SD): 14.46 (3.84) L/h
[4]; human, plasma, po, 90 mg
  Tmax: 2.8 h
  half-life: 30.5 h
[4]; [17]
  AUC: 6140 ng·h/mL
[4]; [18]
  AUC: 6380 ng·h/mL
[4]; human, plasma, po, 90 mg, AUC0‐inf, geometric mean (% CV), single 90 mg oral brigatinib alone (reference), n = 20
  AUC: 6450 ng·h/mL
[4]; human, plasma, po, 90 mg, AUC0‐inf, mean (SD), single 90 mg oral brigatinib alone (reference), n = 20
  AUC: 6710 ng·h/mL
[4]; [19]
  Cmax: 331 ng/mL
[4]; human, plasma, po, geometric mean (% CV), single 90 mg oral brigatinib + itraconazole 200 mg BID (test), n = 20
  Cmax: 401 ng/mL
[4]; human, plasma, po, mean (SD), single 90 mg oral brigatinib + itraconazole 200 mg BID (test), n = 20
  Cmax: 429 ng/mL
[5]
  administered dose recovered in feces: 65%
  administered dose recovered in urine: 25%
  share of circulating radioactive components: 92%
[6]; [20]
  AUC0‐120, geometric LS mean ratio (90%CI) (test vs reference): 0.85 (0.80‐0.91)
  CL/F, geometric LS mean ratio (90%CI) (test vs reference): 1.13 (1.06‐1.20)
[6]; [21]
  reduction in peak concentrations: approximately 40%
  reduction of geometric mean AUC0‐inf: 12%
[6]; [22]
  CL/F, geometric mean (% CV): 15.7 (25.7) L/h
  CL/F, mean (SD): 16.2 (4.3) L/h
[6]; [23]
  CL/F, geometric mean (% CV): 13.1 (33.9) L/h
  CL/F, mean (SD): 13.8 (4.6) L/h
[6]; human, plasma, oral, 90 mg
  half-life: 26.5 h
[6]; human, plasma, po, 90 mg
  Tmax: 2 h
  half-life: 26.7 h
[6]; [17]
  AUC: 6490 ng·h/mL
[6]; [18]
  AUC: 6840 ng·h/mL
[6]; human, plasma, po, 90 mg, AUC0‐inf, geometric mean (% CV), single 90 mg oral brigatinib alone (reference), n = 19
  AUC: 6880 ng·h/mL
[6]; human, plasma, po, 90 mg, AUC0‐inf, mean (SD), single 90 mg oral brigatinib alone (reference), n = 19
  AUC: 7230 ng·h/mL
[6]; [19]
  Cmax: 348 ng/mL
[6]; human, plasma, po, AUC0‐120, geometric mean (% CV), single 90 mg oral brigatinib + gemfibrozil 600 mg BID (test), n = 19
  AUC: 5340 ng·h/mL
[6]; human, plasma, po, AUC0‐120, mean (SD), single 90 mg oral brigatinib + gemfibrozil 600 mg BID (test), n = 19
  AUC: 5520 ng·h/mL
[6]; human, plasma, po, AUC0‐inf, geometric mean (% CV), single 90 mg oral brigatinib + gemfibrozil 600 mg BID (test), n = 19
  AUC: 5740 ng·h/mL
[6]; human, plasma, po, AUC0‐inf, mean (SD), single 90 mg oral brigatinib + gemfibrozil 600 mg BID (test), n = 19
  AUC: 5910 ng·h/mL
[6]; human, plasma, po, geometric mean (% CV), single 90 mg oral brigatinib + gemfibrozil 600 mg BID (test), n = 19
  Cmax: 199 ng/mL
[6]; human, plasma, po, mean (SD), single 90 mg oral brigatinib + gemfibrozil 600 mg BID (test), n = 19
  Cmax: 210 ng/mL
CYP3A expression
  induction of CYP3A expression: induced CYP3A expression
CYP2D6
  inhibition of CYP2D6 activity: did not inhibit
[7]; 180 mg once daily in patients with cancer
  steady‐state apparent oral clearance (CL/F): 12.7 L/h
[7]; patients with cancer, dose range 60‐240 mg once daily
  single‐ and repeat‐dose systemic exposures versus dose: increased dose‐proportionally
CYP3A4/5
  inhibition of CYP3A4/5 activity: did not inhibit
CYP2C8
  inhibition of CYP2C8 activity: did not inhibit

## COc1cc(N2CCC(N3CCNCC3)CC2)ccc1Nc1ncc(Cl)c(Nc2ccccc2P(C)(C)=O)n1 [N‐desmethyl brigatinib]
ALK
  ALK inhibition potency, fold lower than brigatinib: approximately 3 fold
[5]
  share of circulating radioactive components: 3.5%
